Converted amounts (≈) assume the structure as drawn.
What was measured:
Mus musculus [1] = experiment: Toxicity in ICR mouse assessed as mortality administered as single dose at 100 mg/kg, iv after 7 days; type: organism-based; design: dose 100 mg/kg, route intravenous; conditions: in vivo, 168 h
Streptococcus pyogenes = experiment: Antibacterial activity against Streptococcus pyogenes IID692 after 18 hrs by agar dilution method; type: functional
Staphylococcus aureus [2] = experiment: Antibacterial activity against Staphylococcus aureus Smith after 18 hrs by agar dilution method; type: functional
Klebsiella pneumoniae = experiment: Antibacterial activity against Klebsiella pneumoniae IID5209 after 18 hrs by agar dilution method; type: functional
Pseudomonas aeruginosa = experiment: Antibacterial activity against Pseudomonas aeruginosa IID1210 after 18 hrs by agar dilution method; type: functional
Enterococcus faecalis [3] = experiment: Antibacterial activity against quinoline-resistant Enterococcus faecalis No.15 isolate after 18 hrs by agar dilution method; type: functional
Enterococcus faecalis [4] = experiment: Antibacterial activity against Enterococcus faecalis IID682 after 18 hrs by agar dilution method; type: functional
Mus musculus [5] = experiment: Toxicity in intracerebroventricularly dosed ICR mouse assessed as induction of convulsion after 2 hrs in presence of fenbufen; type: organism-based; conditions: in vivo, icv_or_intrathecal
Enterococcus faecalis [6] = experiment: Antibacterial activity against vancomycin-resistant Enterococcus faecalis KU1856 after 18 hrs by agar dilution method; type: functional
Escherichia coli = experiment: Antibacterial activity against Escherichia coli NIHJ JC2 after 18 hrs by agar dilution method; type: functional; conditions: NIHJ JC2, 18 h
Streptococcus pneumoniae [7] = experiment: Antibacterial activity against Streptococcus pneumoniae type 3 after 18 hrs by agar dilution method; type: functional
Streptococcus pneumoniae [8] = experiment: Antibacterial activity against quinoline-resistant Streptococcus pneumoniae no.55 isolate after 18 hrs by agar dilution method; type: functional
Mus musculus [9] = experiment: Toxicity in intracerebroventricularly dosed ICR mouse assessed as induction of convulsion after 2 hrs in absence of fenbufen; type: organism-based; conditions: in vivo, icv_or_intrathecal
Haemophilus influenzae = experiment: Antibacterial activity against Haemophilus influenzae IID983 after 18 hrs by agar dilution method; type: functional
Mus musculus [10] = experiment: Phototoxicity in orally dosed ICR mouse assessed as skin erythema after 72 hrs; type: organism-based; conditions: in vivo, po
Staphylococcus aureus [11] = experiment: Antibacterial activity against quinoline-resistant Staphylococcus aureus OITI MR1-1002 isolate after 18 hrs by agar dilution method; type: functional
Enterococcus faecalis [12] = experiment: Antibacterial activity against vancomycin-resistant Enterococcus faecalis KU1866 after 18 hrs by agar dilution method; type: functional
Staphylococcus aureus [13] = experiment: Antibacterial activity against quinoline-resistant Staphylococcus aureus MS5935 containing double grlA and single gyrA mutation after 18 hrs by agar dilution method; type: functional
Staphylococcus aureus [14] = experiment: Antibacterial activity against quinoline-resistant Staphylococcus aureus MS5935 containing double grlA and double gyrA mutation after 18 hrs by agar dilution method; type: functional
[15] = Inhibition of Staphylococcus aureus MS5935 wild type topoisomerase 4-mediated decatenation activity
Staphylococcus aureus [16] = experiment: Antibacterial activity against quinoline-resistant Staphylococcus aureus MS5935 containing single grlA and single gyrA mutation after 18 hrs by agar dilution method; type: functional
Streptococcus pneumoniae [17] = experiment: Antibacterial activity against Streptococcus pneumoniae type 3 infected in po dosed ICR mouse administered 1 hr after bacterial challenge measured at 7 days post infection; type: functional
Streptococcus pneumoniae [18] = experiment: Antibacterial activity against Streptococcus pneumoniae type 3 infected in subcutaneously dosed ICR mouse administered 1 hr after bacterial challenge measured at 7 days post infection; type: functional; conditions: sc
DNA gyrase [19] = target: T1, DNA gyrase (Staphylococcus aureus, UniProt P0A0K8+P20831); experiment: Inhibition of quinoline-resistant Staphylococcus aureus MS5935 DNA gyrase-mediated supercoiling activity; type: protein-complex assay
T1 sequence (P0A0K8 whole entry): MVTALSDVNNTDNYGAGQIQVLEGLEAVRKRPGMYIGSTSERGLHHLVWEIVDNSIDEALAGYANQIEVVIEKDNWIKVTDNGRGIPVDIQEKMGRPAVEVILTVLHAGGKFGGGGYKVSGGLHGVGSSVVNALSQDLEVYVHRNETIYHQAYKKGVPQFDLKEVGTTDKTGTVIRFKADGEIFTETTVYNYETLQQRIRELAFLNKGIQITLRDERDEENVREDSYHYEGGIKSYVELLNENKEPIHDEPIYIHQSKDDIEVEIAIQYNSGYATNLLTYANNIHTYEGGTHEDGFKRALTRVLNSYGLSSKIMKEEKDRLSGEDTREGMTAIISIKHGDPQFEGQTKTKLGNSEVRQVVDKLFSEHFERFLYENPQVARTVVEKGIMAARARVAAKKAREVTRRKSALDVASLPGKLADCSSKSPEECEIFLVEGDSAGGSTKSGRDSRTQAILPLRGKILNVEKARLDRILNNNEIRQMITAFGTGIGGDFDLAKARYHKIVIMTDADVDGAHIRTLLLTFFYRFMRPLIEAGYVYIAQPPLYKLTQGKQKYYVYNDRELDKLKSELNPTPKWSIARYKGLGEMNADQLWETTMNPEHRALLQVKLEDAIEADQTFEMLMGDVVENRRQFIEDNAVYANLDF
T1 sequence (P20831 whole entry): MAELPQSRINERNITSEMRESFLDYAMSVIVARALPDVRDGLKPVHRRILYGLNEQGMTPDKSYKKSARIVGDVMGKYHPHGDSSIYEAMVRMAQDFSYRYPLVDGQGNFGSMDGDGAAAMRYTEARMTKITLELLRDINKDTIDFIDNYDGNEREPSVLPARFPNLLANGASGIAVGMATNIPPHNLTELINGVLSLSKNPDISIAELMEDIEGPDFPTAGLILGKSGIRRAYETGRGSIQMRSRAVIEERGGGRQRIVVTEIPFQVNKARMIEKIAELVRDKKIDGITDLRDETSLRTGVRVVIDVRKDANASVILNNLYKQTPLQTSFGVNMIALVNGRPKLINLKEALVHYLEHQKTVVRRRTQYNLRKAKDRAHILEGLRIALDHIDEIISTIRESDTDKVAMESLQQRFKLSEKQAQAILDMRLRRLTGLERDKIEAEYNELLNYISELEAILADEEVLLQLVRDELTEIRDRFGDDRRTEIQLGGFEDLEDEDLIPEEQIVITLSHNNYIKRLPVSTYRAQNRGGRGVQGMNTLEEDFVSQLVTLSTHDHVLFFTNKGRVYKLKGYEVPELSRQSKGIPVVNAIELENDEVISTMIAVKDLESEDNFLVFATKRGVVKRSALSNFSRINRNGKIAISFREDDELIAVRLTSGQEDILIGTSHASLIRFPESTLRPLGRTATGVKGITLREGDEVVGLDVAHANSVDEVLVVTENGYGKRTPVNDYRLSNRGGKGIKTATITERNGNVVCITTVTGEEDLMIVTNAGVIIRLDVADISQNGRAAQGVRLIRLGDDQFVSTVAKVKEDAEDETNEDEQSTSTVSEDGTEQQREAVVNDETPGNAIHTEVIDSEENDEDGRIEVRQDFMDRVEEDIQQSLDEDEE

Staphylococcus aureus [20] = experiment: Antibacterial activity against quinoline-resistant wild type Staphylococcus aureus MS5935 after 18 hrs by agar dilution method; type: functional
Staphylococcus aureus [21] = experiment: Antibacterial activity against Staphylococcus aureus Smith infected in subcutaneously dosed ICR mouse administered 1 hr after bacterial challenge measured at 7 days post infection; type: functional; conditions: sc
[22] = Inhibition of quinoline-resistant Staphylococcus aureus MS5935 topoisomerase 4-mediated decatenation activity
Staphylococcus aureus [23] = experiment: Antibacterial activity against quinoline-resistant Staphylococcus aureus MS5935 containing single grlA mutation after 18 hrs by agar dilution method; type: functional
Staphylococcus aureus [24] = experiment: Antibacterial activity against Staphylococcus aureus Smith infected in po dosed ICR mouse administered 1 hr after bacterial challenge measured at 7 days post infection; type: functional
DNA gyrase [25] = target: T1, DNA gyrase; experiment: Inhibition of Staphylococcus aureus MS5935 wild type DNA gyrase-mediated supercoiling activity; type: protein-complex assay
Mus musculus [26] = experiment: Toxicity in ICR mouse assessed as mortality administered as single dose at 200 mg/kg, iv after 7 days; type: organism-based; design: dose 200 mg/kg, route intravenous; conditions: in vivo, 168 h

Row | Compound | Activity (Mus musculus [1]) | MIC (Streptococcus pyogenes) [µg/mL] | MIC (Staphylococcus aureus [2]) [ng/mL] | MIC (Klebsiella pneumoniae) [µg/mL] | MIC (Pseudomonas aeruginosa) [µg/mL] | MIC (Enterococcus faecalis [3]) [µg/mL] | MIC (Enterococcus faecalis [4]) [µg/mL] | Activity (Mus musculus [5]) [µg] | MIC (Enterococcus faecalis [6]) [µg/mL] | MIC (Escherichia coli) [µg/mL] | MIC (Streptococcus pneumoniae [7]) [µg/mL] | MIC (Streptococcus pneumoniae [8]) [µg/mL] | Activity (Mus musculus [9]) [µg] | MIC (Haemophilus influenzae) [ng/mL] | Activity (Mus musculus [10]) | MIC (Staphylococcus aureus [11]) [µg/mL] | MIC (Enterococcus faecalis [12]) [µg/mL] | further results
1 | O=C(O)c1cn2c3c(c(N4CC[C@@H](CNC5CC5)C4)c(F)cc3c1=O)OC[C@@H]2CF | Non-toxic | 0.031 (≈ 0.0739 µM) | 8 (≈ 0.0191 µM) | 0.031 (≈ 0.0739 µM) | 2 (≈ 4.77 µM) | 1 (≈ 2.38 µM) | 0.063 (≈ 0.15 µM) | 10 | 0.5 (≈ 1.19 µM) | 0.004 (≈ 0.00954 µM) | 0.016 (≈ 0.0381 µM) | 0.25 (≈ 0.596 µM) | 10 | 4 (≈ 0.00954 µM) | Non-toxic | 2 (≈ 4.77 µM) | 0.5 (≈ 1.19 µM) | –
2 | C[C@H]1COc2c(N3C[C@H](CNC4CC4)[C@@H](F)C3)c(F)cc3c(=O)c(C(=O)O)cn1c23 | – | 0.125 (≈ 0.298 µM) | 16 (≈ 0.0381 µM) | 0.125 (≈ 0.298 µM) | 4 (≈ 9.54 µM) | 4 (≈ 9.54 µM) | 0.125 (≈ 0.298 µM) | – | 2 (≈ 4.77 µM) | 0.016 (≈ 0.0381 µM) | 0.063 (≈ 0.15 µM) | 2 (≈ 4.77 µM) | – | 8 (≈ 0.0191 µM) | – | 16 (≈ 38.1 µM) | 4 (≈ 9.54 µM) | –
3 | O=C(O)c1cn2c3c(c(N4C[C@H](CNC5CC5)[C@H](F)C4)c(F)cc3c1=O)OC[C@@H]2CF | Non-toxic | 0.031 (≈ 0.0709 µM) | 8 (≈ 0.0183 µM) | 0.031 (≈ 0.0709 µM) | 2 (≈ 4.57 µM) | 1 (≈ 2.29 µM) | 0.063 (≈ 0.144 µM) | > 40 | 0.5 (≈ 1.14 µM) | 0.008 (≈ 0.0183 µM) | 0.016 (≈ 0.0366 µM) | 0.25 (≈ 0.572 µM) | > 40 | 4 (≈ 0.00914 µM) | Non-toxic | 1 (≈ 2.29 µM) | 0.5 (≈ 1.14 µM) | MIC (Staphylococcus aureus [13]): 0.5 µg/mL (≈ 1.14 µM); MIC (Staphylococcus aureus [14]): 4 µg/mL (≈ 9.14 µM); IC50 [15]: 1.27 µg/mL (≈ 2.9 µM); MIC (Staphylococcus aureus [16]): 0.25 µg/mL (≈ 0.572 µM); ED50 (Streptococcus pneumoniae [17]): 4 mg/kg; ED50 (Streptococcus pneumoniae [18]): 2.9 mg/kg; IC50 (DNA gyrase [19]): 31.1 µM; MIC (Staphylococcus aureus [20]): 0.016 µg/mL (≈ 0.0366 µM); ED50 (Staphylococcus aureus [21]): 0.12 mg/kg; IC50 [22]: 7 µg/mL (≈ 16 µM); MIC (Staphylococcus aureus [23]): 0.031 µg/mL (≈ 0.0709 µM); ED50 (Staphylococcus aureus [24]): 0.5 mg/kg; IC50 (DNA gyrase [25]): 2420 nM; Activity (Mus musculus [26]): Non-toxic
4 | C[C@H]1CN(c2c(F)cc3c(=O)c(C(=O)O)cn4c3c2OC[C@@H]4CF)C[C@@H]1CNC1CC1 | Non-toxic | 0.031 (≈ 0.0715 µM) | 8 (≈ 0.0185 µM) | 0.125 (≈ 0.288 µM) | 4 (≈ 9.23 µM) | 1 (≈ 2.31 µM) | 0.063 (≈ 0.145 µM) | 20 | 1 (≈ 2.31 µM) | 0.016 (≈ 0.0369 µM) | 0.031 (≈ 0.0715 µM) | 0.5 (≈ 1.15 µM) | 40 | 8 (≈ 0.0185 µM) | Non-toxic | 2 (≈ 4.61 µM) | 1 (≈ 2.31 µM) | –
5 | O=C(O)c1cn(C2CC2)c2cc(N3CCNCC3)c(F)cc2c1=O [CIPROFLOXACIN] | – | 0.5 (≈ 1.51 µM) | 250 (≈ 0.754 µM) | 0.004 (≈ 0.0121 µM) | – | 64 (≈ 193 µM) | 0.5 (≈ 1.51 µM) | – | 64 (≈ 193 µM) | ≤ 0.001 | – | 64 (≈ 193 µM) | – | 8 (≈ 0.0241 µM) | – | 64 (≈ 193 µM) | 64 (≈ 193 µM) | –
6 | C[C@@H]1CN(c2c(F)cc3c(=O)c(C(=O)O)cn4c3c2OC[C@@H]4CF)C[C@@H]1CNC1CC1 | – | 0.031 (≈ 0.0715 µM) | 8 (≈ 0.0185 µM) | 0.063 (≈ 0.145 µM) | 2 (≈ 4.61 µM) | 1 (≈ 2.31 µM) | 0.063 (≈ 0.145 µM) | 10 | 1 (≈ 2.31 µM) | 0.016 (≈ 0.0369 µM) | 0.016 (≈ 0.0369 µM) | 0.125 (≈ 0.288 µM) | 20 | 4 (≈ 0.00923 µM) | Non-toxic | 0.5 (≈ 1.15 µM) | 1 (≈ 2.31 µM) | Activity (Mus musculus [26]): Toxic
7 | CCNCC1CCN(c2c(F)cc3c(=O)c(C(=O)O)cn4c3c2OC[C@@H]4C)C1 (some centres not stated) | – | 0.063 (≈ 0.162 µM) | 125 (≈ 0.321 µM) | – | 4 (≈ 10.3 µM) | 32 (≈ 82.2 µM) | 0.25 (≈ 0.642 µM) | – | 16 (≈ 41.1 µM) | 0.031 (≈ 0.0796 µM) | 0.063 (≈ 0.162 µM) | 2 (≈ 5.14 µM) | – | – | – | 32 (≈ 82.2 µM) | 16 (≈ 41.1 µM) | –

Reference: ChEMBL document CHEMBL1150336, “Synthesis and antibacterial activity of novel pyrido[1,2,3-de][1,4]benzoxazine-6-carboxylic acid derivatives carrying the 3-cyclopropylaminomethyl-4-substituted-1-pyrrolidinyl group as a C-10 substituent” (J Med Chem, 2008)
